Measurements from paper PMC4764977, “AZD8797 is an allosteric non-competitive modulator of the human CX3CR1 receptor” (Biochemical Journal, 2016).
pEC50, pIC50, pKd, pKi: −log10 of the molar value.

Assays:
CX3CR1 [1] = biological target: T1, CX3CR1 (Homo sapiens, UniProt P49238); set-up: method as in PMID 23516963; conditions: HEK293 cells co-transfected with Gqi5-protein; read-out: Ki, 125I-CX3CL1 competition assay; cited from earlier work
T1 sequence (P49238 1-355): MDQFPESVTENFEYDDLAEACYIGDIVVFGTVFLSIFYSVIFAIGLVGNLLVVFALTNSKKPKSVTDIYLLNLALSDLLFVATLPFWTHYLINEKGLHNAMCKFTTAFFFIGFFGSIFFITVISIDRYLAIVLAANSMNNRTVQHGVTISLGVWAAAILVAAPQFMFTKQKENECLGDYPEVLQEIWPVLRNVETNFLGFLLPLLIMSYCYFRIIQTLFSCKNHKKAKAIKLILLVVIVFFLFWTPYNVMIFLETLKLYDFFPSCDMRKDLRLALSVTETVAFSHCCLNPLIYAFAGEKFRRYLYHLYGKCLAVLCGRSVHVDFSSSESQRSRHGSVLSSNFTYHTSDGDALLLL

CX3CR1 [2] = biological target: T1, CX3CR1; experiment: 125I-CX3CL1 kinetic radioligand binding, CHO-hCX3CR1 membranes; set-up: host or cells: CHO-K1
Protocol: Incubation times ranged from 2.5 min to 4 h. For the association experiments, the radioligand data were fitted to the following monophasic exponential association equation and the association rate (kon) was calculated using the added amounts of radioligand (L) and dissociation rate (koff) as constants. koff was measured in separate dissociation experiments. The dissociation data were fitted to the monophasic exponential decay equation: where Y0 is the binding (cpm) at time zero, X is the time and NS is the (non-specific) binding at infinite times. […] Multiple compound dissociation data were fitted to the biphasic exponential decay equation: […]

CX3CR1 [3] = biological target: T1, CX3CR1; experiment: 125I-CX3CL1 competition binding, CHO-hCX3CR1 membranes; set-up: host or cells: CHO-K1
Protocol: Adherent CHO-K1 cells stably expressing human CX3CR1 (CHO-hCX3CR1) were grown in F12 medium with GlutaMAX, 10% FBS (Sigma–Aldrich) and 400 μg·ml^−1 geneticin and harvested at 80% confluency. Cells were washed in PBS and lysed with an Ultra-Turrax Homogenizer in 50 mM Tris/HCl (pH 7.4) and 1 mM EDTA with Complete™ protease inhibitor (Roche). […] Protein concentration was determined using the BCA method (Thermo Fisher Scientific). […] The filter plate was washed in ice-cold 25 mM HEPES (pH 7.4), 5 mM MgCl2, 1 mM CaCl2 and 500 mM NaCl and dried at 50°C for 1 h. Scintillation cocktail, Optiphase Supermix (PerkinElmer) was added to each well and the radioactivity was measured using a MicroBeta Trilux reader (PerkinElmer). All analysis and calculations were performed using GraphPad Prism 6.01. Functional and competition binding data were analysed using non-linear regression and fitted to a sigmoidal dose-response with variable slope according to the following equation: […] where Y is the amount of radioligand bound (cpm) or functional effect, Top denotes maximal asymptotic binding, and Bottom denotes the minimal asymptotic binding. XC50 is either the EC50 or the IC50 value, and X is the logarithm of the test compound concentration. Ki values were calculated from IC50 values using the Cheng–Prusoff equation: […]

[4] = biological target: T2, CX3CR1 (human whole blood leucocytes) (Homo sapiens, UniProt P49238); experiment: Cellix flow adhesion of hWB leucocytes to full-length CX3CL1; type: cell-based; conditions: flow 2.25 dyn·cm^−2, 60 min pre-incubation, n=2, read-out: IC50, prevention of capture (adhesion) of human blood leucocytes to CX3CL1
T2 construct: hWB with heparin as anti-coagulant was collected from healthy donors; from tissue; host or cells: human whole blood leucocytes (healthy volunteers)
T2 sequence (P49238 1-355): T1 sequence (P49238 1-355)
Protocol: Adhesion of a human B-lymphocyte cell line (RPMI-8226) or hWB leucocytes to full-length human CX3CL1 were monitored using a microfluidics Cellix VenaFlux platform and Vena 8 Biochips (Cellix). Each channel on the Vena 8 chip was coated with anti-His monoclonal antibody (R&D Systems) followed by His-tagged full-length CX3CL1 (R&D Systems) and blocked for non-specific binding (NSB) with BSA.
Cell preparations: RPMI-8226 cells were cultured in RPMI 1640 medium with GlutaMAX and 20% FBS (HyClone, Perbio). Before the experiment, cells were centrifuged at 320 g and resuspended to 5 ×10^6 cells·ml^−1 in RPMI 1640 with 1% FBS. hWB with heparin as anti-coagulant was collected from healthy donors and 5 μM DiOC6 was added. AZD8797 was diluted in a 3-fold series in DMSO starting at 3.3 or 30 μM and pre-incubated with RPMI-8226 cells for 15 min or whole blood for 60 min. DMSO concentration held constant for all AZD8797 concentrations (0.1% for the RPMI-8226 experiments and 0.3% for the whole blood experiments). […]
RPMI-8226 cells in RPMI 1640+1% FBS or whole blood were pumped through the channels at 0.5 dyn·cm^−2 and 2.25 dyn·cm^−2 respectively, for 3 min. Images for quantification were captured using a microscope. Cells adhering to channels were counted and the mean values across five images in each channel were used for calculating the concentration–response curves.

CX3CR1 [5] = biological target: T1, CX3CR1; experiment: Equilibrium saturation binding, CHO-hCX3CR1 membranes; set-up: host or cells: CHO-K1
Protocol: Cells were washed in PBS and lysed with an Ultra-Turrax Homogenizer in 50 mM Tris/HCl (pH 7.4) and 1 mM EDTA with Complete™ protease inhibitor (Roche). […] Protein concentration was determined using the BCA method (Thermo Fisher Scientific). […] The filter plate was washed in ice-cold 25 mM HEPES (pH 7.4), 5 mM MgCl2, 1 mM CaCl2 and 500 mM NaCl and dried at 50°C for 1 h. Scintillation cocktail, Optiphase Supermix (PerkinElmer) was added to each well and the radioactivity was measured using a MicroBeta Trilux reader (PerkinElmer). […] The DMSO concentration was held constant at 1%. where Kd is the radioligand dissociation constant. Saturation binding isotherms were analysed by non-linear regression and globally fitted to a hyperbolic one-site binding model taking into account both NSB and total binding to calculate the total receptor number (Bmax) and radioligand dissociation constant (Kd): […] NSB=NS·X+Background, where NS is the concentration-dependent NSB. To visualize the manner of binding of CX3CL1 and AZD8797, a diagnostic affinity ratio plot designed to compare strictly competitive behaviour with allosteric interactions was used. […] For single site competitive interactions, the resulting linear plot has the slope of 1.0. For allosteric but competitive interactions, the slope will start at 1.0 but progressively deviate from unity, eventually reaching a limit governed by the allosteric ternary complex model co-operativity factor α [21, 22].

[6] = in presence of 10 μM AZD8797 + 100 nM CX3CL1, two-phase model, n=3
[7] = increasing concentrations of unlabelled compound

With `CC(C)C[C@H](CO)Nc1nc(S[C@@H](C)c2ccccc2)nc2nc(N)sc12` [AZD8797] as the molecule, how does the pKi (CX3CR1 [1]) read?
Its pKi is 8.40.

And the “k1off of 125I-CX3CL1 dissociation (fast first phase)” value (CX3CR1 [2]; [6])?
The value was 0.45 min⁻¹.

And the “k2off of 125I-CX3CL1 dissociation (second slower phase)” value (CX3CR1 [2]; [6])?
The value was 0.0060 min⁻¹.

What about the “Effect on 125I-CX3CL1 association rate (kon)” value (CX3CR1 [2]; results not shown) of the same molecule?
Its value is “no effect”.

What about the “Effect on maximal binding of 125I-CX3CL1 in association experiments” value (CX3CR1 [2]; results not shown) of the same molecule?
Its value is “decreased”.

And the “Lower potency than unlabelled CX3CL1 in displacing 125I-CX3CL1” value (CX3CR1 [3])?
Its value is 1000 fold.

And the pEC50 (CX3CR1 [3]; 10 pM 125I-CX3CL1, n=3, read-out: EC50, displacement of 125I-CX3CL1)?
The pEC50 was 6.51.

And the pIC50 [4]?
Its pIC50 is 6.48.

What about the “Effect on Bmax of 125I-CX3CL1 saturation binding” value (CX3CR1 [5]; [7]) of the same molecule?
Its value is “decreased”.

And the “Effect on Kd of 125I-CX3CL1 saturation binding” value (CX3CR1 [5]; [7])?
Its value is “without any effect”.

What about the pKd (CX3CR1 [5]; one-site model, n=4) of the same molecule?
Its pKd is 7.92.
